Source: patent EP2121694B1, “CYCLOPROPYL FUSED INDOLOBENZAZEPINE HCV NS5B INHIBITORS” (Bristol-Myers Squibb Company, priority 2007, dated 2008)
Where two headings read alike, the source gives them in different places.

Tests used:
HCV NS5B = molecular target: T1, HCV NS5B (Hepatitis C virus genotype 1b, UniProt Q9WMX2); assay: Modified HCV NS5B RdRp enzyme assay (preincubation protocol); assay type: biochemical; conditions: HCV NS5B RdRp genotype 1b
T1 construct: The protein was expressed with an 18 amino acid C-terminal truncation to enhance the solubility; made in house; host or cells: E. coli BL21(DE3), pET21a vector
T1 sequence (Q9WMX2 2420-2992): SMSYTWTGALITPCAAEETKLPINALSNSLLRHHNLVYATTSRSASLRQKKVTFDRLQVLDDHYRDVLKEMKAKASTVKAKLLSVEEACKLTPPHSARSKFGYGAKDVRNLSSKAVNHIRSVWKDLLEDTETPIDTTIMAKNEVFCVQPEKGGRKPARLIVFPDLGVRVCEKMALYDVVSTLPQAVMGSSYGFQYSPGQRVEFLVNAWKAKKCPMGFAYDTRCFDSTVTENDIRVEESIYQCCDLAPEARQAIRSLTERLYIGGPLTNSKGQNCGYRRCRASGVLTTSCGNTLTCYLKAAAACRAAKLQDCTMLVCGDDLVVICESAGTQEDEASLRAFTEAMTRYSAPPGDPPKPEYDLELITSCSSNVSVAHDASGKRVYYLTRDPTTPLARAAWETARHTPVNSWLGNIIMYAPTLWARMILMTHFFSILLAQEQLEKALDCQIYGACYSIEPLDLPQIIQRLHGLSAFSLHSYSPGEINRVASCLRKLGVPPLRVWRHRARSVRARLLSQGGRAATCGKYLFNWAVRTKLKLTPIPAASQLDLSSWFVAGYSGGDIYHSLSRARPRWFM
Protocol: HCV NS5B RdRp cloning, expression, and purification. The cDNA encoding the NS5B protein of HCV, genotype 1b, was cloned into the pET21a expression vector. The protein was expressed with an 18 amino acid C-terminal truncation to enhance the solubility. The E. coli competent cell line BL21(DE3) was used for expression of the protein. Cultures were grown at 37 °C for ∼ 4 hours until the cultures reached an optical density of 2.0 at 600 nm. The cultures were cooled to 20 °C and induced with 1 mM IPTG. Fresh ampicillin was added to a final concentration of 50 µg/ml and the cells were grown overnight at 20 °C.
Cell pellets (3L) were lysed for purification to yield 15-24 mgs of purified NS5B. The lysis buffer consisted of 20 mM Tris-HCl, pH 7.4, 500 mM NaCl, 0.5% triton X-100, 1 mM DTT, 1mM EDTA, 20% glycerol, 0.5 mg/ml lysozyme, 10 mM MgCl2, 15 ug/ml deoxyribonuclease I, and Complete TM protease inhibitor tablets (Roche). After addition of the lysis buffer, frozen cell pellets were resuspended using a tissue homogenizer. To reduce the viscosity of the sample, aliquots of the lysate were sonicated on ice using a microtip attached to a Branson sonicator. The sonicated lysate was centrifuged at 100,000 x g for 1hr at 4 °C and filtered through a 0.2 µm filter unit (Corning).
The protein was purified using three sequential chromatography steps: Heparin sepharose CL-6B, polyU sepharose 4B, and Hitrap SP sepharose (Pharmacia). The chromatography buffers were identical to the lysis buffer but contained no lysozyme, deoxyribonuclease I, MgCl2 or protease inhibitor and the NaCl concentration of the buffer was adjusted according to the requirements for charging the protein onto the column. Each column was eluted with a NaCl gradient which varied in length from 5-50 column volumes depending on the column type. After the final chromatography step, the resulting purity of the enzyme is >90% based on SDS-PAGE analysis. The enzyme was aliquoted and stored at -80 °C.
Standard HCV NS5B RdRp enzyme assay. HCV RdRp genotype 1b assays were run in a final volume of 60 µl in 96 well plates (Costar 3912). The assay buffer is composed of 20 mM Hepes, pH 7.5, 2.5 mM KCl, 2.5 mM MgCl2, 1 mM DTT, 1.6 U RNAse inhibitor (Promega N2515), 0.1 mg/ml BSA (Promega R3961), and 2 % glycerol. All compounds were serially diluted (3-fold) in DMSO and diluted further in water such that the final concentration of DMSO in the assay was 2%. HCV RdRp genotype 1b enzyme was used at a final concentration of 28 nM. A polyA template was used at 6 nM, and a biotinylated oligo-dT12 primer was used at 180 nM final concentration. Template was obtained commercially (Amersham 27-4110). Biotinylated primer was prepared by Sigma Genosys. 3H-UTP was used at 0.6 µCi (0.29 µM total UTP). Reactions were initiated by the addition of enzyme, incubated at 30 °C for 60 min, and stopped by adding 25 µl of 50 mM EDTA containing SPA beads (4 µg/µl, Amersham RPNQ 0007). Plates were read on a Packard Top Count NXT after >1hr incubation at room temperature.
Modified HCV NS5B RdRp enzyme assay. A modified enzyme assay was performed essentially as described for the standard enzyme assay except for the following: The biotinylated oligo dT12 primer was precaptured on streptavidin-coated SPA beads by mixing primer and beads in assay buffer and incubating at room temperature for one hour. Unbound primer was removed after centrifugation. The primer-bound beads were resuspended in 20 mM Hepes buffer, pH 7.5 and used in the assay at final concentrations of 20 nM primer and 0.67 µg/µl beads. Order of addition in the assay: enzyme (14 nM) was added to diluted compound followed by the addition of a mixture of template (0.2 nM) , 3H-UTP (0.6 µCi, 0.29 µM), and primer-bound beads, to initiate the reaction; concentrations given are final. Reactions were allowed to proceed for 4 hours at 30° C.
IC50 values for compounds were determined using seven different [I]. […]

HCV replicon = assay: HCV FRET screening assay in HCV replicon cells; assay type: cell-based; conditions: Hepatitis C virus
Source text: FRET Assay Preparation. To perform the HCV FRET screening assay, 96-well cell culture plates were used. The FRET peptide (Anaspec, Inc.) (Taliani et al., Anal. Biochem. 1996, 240, 60-67) contains a fluorescence donor, EDANS, near one end of the peptide and an acceptor, DABCYL, near the other end. The fluorescence of the peptide is quenched by […] resonance energy transfer (RET) between the donor and the acceptor, but as the NS3 protease cleaves the peptide the products are released from RET quenching and the fluorescence of the donor becomes apparent. The assay reagent was made as follows: 5X cell Luciferase cell culture lysis reagent from Promega (#E153A) diluted to 1X with dH2O, NaCl added to 150 mM final, the FRET peptide diluted to 20 uM final from a 2 mM stock.
To prepare plates, HCV replicon cells, with or without a Renilla luciferase reporter gene, were trypsinized and placed into each well of a 96-well plate with titrated test compounds added in columns 3 through 12; columns 1 and 2 contained a control compound (HCV protease inhibitor), and the bottom row contained cells without compound. The plates were then placed in a CO2 incubator at 37 °C.
Assays. Subsequent to addition of the test compounds described above (FRET Assay Preparation), at various times the plate was removed and Alamar blue solution (Trek Diagnostics, #00-100) was added per well as a measure of cellular toxicity. After reading in a Cytoflour 4000 instrument (PE Biosystems), plates were rinsed with PBS and then used for FRET assay by the addition of 30 ul of the FRET peptide assay reagent described above (FRET Assay Preparation) per well. The plate was then placed into the Cytoflour 4000 instrument which had been set to 340 excite/490 emission, automatic mode for 20 cycles and the plate read in a kinetic mode. Typically, the signal to noise using an endpoint analysis after the reads was at least three-fold. Alternatively, after Alamar blue reading, plates were rinsed with PBS, 50 ul of DMEM (high glucose) without phenol red was added and plates were then used for luciferase assay using the Promega Dual-Glo Luciferase Assay System.
Compound analysis was determined by quantification of the relative HCV replicon inhibition and the relative cytotoxicity values. To calculate cytoxicity values, the average Alamar Blue fluorescence signals from the control wells were set as 100% non-toxic. The individual signals in each of the compound test wells were then divided by the average control signal and multiplied by 100% to determine […]. To calculate the HCV replicon inhibition values, an average background value was obtained from the two wells containing the highest amount of HCV protease inhibitor at the end of the assay period. These numbers were similar to those obtained from naïve Huh-7 cells.
The background numbers were then subtracted from the average signal obtained from the control wells and this number was used as 100% activity. The individual signals in each of the compound test wells were then divided by the averaged control values after background subtraction and multiplied by 100% to determine percent activity. EC50 values for a protease inhibitor titration were calculated as the concentration which caused a 50% reduction in FRET or luciferase activity. The two numbers generated for the compound plate, percent cytoxicity and percent activity were used to determine compounds of interest for further analysis.

[1] = HCV replicon cells, FRET assay, read-out: EC50

COc1ccc2c(c1)C1CC1(C(=O)N1CC[C@H](N(C)C)C1)Cn1c-2c(C2CCCCC2)c2ccc(C(=O)NS(=O)(=O)N(C)C)cc21 (stereo partly shown)
IC50 (HCV NS5B): 0.097 to 1 µM
EC50 (HCV replicon; [1]): 0.097 to 1 µM

COc1cccc2c1C1CC1(C(=O)N1C[C@@H](C)N[C@@H](C)C1)Cn1c-2c(C2CCCCC2)c2ccc(C(=O)NS(=O)(=O)N(C)C)cc21 (stereo partly shown)
IC50 (HCV NS5B): 0.097 to 1 µM
EC50 (HCV replicon; [1]): 0.097 to 1 µM

COc1ccc2c(c1)[C@H]1C[C@@]1(C(=O)O)Cn1c-2c(C2CCCCC2)c2ccc(C(=O)NS(=O)(=O)N(C)C)cc21
IC50 (HCV NS5B): 0.097 to 1 µM
EC50 (HCV replicon): 1 to 10 µM

COc1ccc2c(c1)C1CC1(C(=O)N1CCCCC1CN(C)C)Cn1c-2c(C2CCCCC2)c2ccc(C(=O)NS(=O)(=O)N(C)C)cc21 (stereo not shown) [drawing 50]
IC50 (HCV NS5B): 0.097 to 1 µM

COc1ccc2c(c1)C1CC1(C(=O)O)Cn1c-2c(C2CCCCC2)c2ccc(C(=O)NS(=O)(=O)C3CC3)cc21 (stereo not shown)
IC50 (HCV NS5B): 0.097 to 1 µM

COc1ccc2c(c1)C1CC1(C(=O)N1CCC(C)(O)CC1)Cn1c-2c(C2CCCCC2)c2ccc(C(=O)NS(=O)(=O)C3CC3)cc21 (stereo not shown)
IC50 (HCV NS5B): 0.097 to 1 µM

C[C@@H]1CN(C(=O)C23CC2c2c(OC(F)(F)F)cccc2-c2c(C4CCCCC4)c4ccc(C(=O)O)cc4n2C3)C[C@H](C)O1 (stereo partly shown)
IC50 (HCV NS5B): 0.097 to 1 µM
EC50 (HCV replicon; [1]): 0.097 to 1 µM

COc1ccc2c(c1)C1CC1(C(=O)N1CCC(C)(O)CC1)Cn1c-2c(C2CCCCC2)c2ccc(C(=O)NS(C)(=O)=O)cc21 (stereo not shown)
IC50 (HCV NS5B): 0.097 to 1 µM
EC50 (HCV replicon; [1]): 0.097 to 1 µM

COC(=O)C12CC1c1cc(OC)ccc1-c1c(C3CCCCC3)c3ccc(C(=O)NS(N)(=O)=O)cc3n1C2 (stereo not shown)
IC50 (HCV NS5B): 0.097 to 1 µM

COc1ccc2c(c1)C1CC1(C(=O)N1CCCN(C)CC1)Cn1c-2c(C2CCCCC2)c2ccc(C(=O)NS(N)(=O)=O)cc21 (stereo not shown)
IC50 (HCV NS5B): 0.097 to 1 µM
EC50 (HCV replicon; [1]): 0.097 to 1 µM

CCC(CC)N1CCN(C(=O)C23CC2c2cc(OC)ccc2-c2c(C4CCCCC4)c4ccc(C(=O)NS(=O)(=O)N(C)C)cc4n2C3)CC1 (stereo not shown) [drawing 37]
IC50 (HCV NS5B): 0.097 to 1 µM

COC(=O)C12CC1c1cc(OC)ccc1-c1c(C3CCCCC3)c3ccc(C(=O)NS(=O)(=O)C(C)C)cc3n1C2 (stereo not shown)
IC50 (HCV NS5B): 0.097 to 1 µM

COc1ccc2c(c1)C1CC1(C(=O)N1CCCN(C)CC1)Cn1c-2c(C2CCCCC2)c2ccc(C(=O)NS(=O)(=O)N(C)C)cc21 (stereo not shown) [drawing 65]
IC50 (HCV NS5B): 0.097 to 1 µM

CCC(CC)N1CCN(C(=O)C23CC2c2cc(OC)ccc2-c2c(C4CCCCC4)c4ccc(C(=O)NS(=O)(=O)N(C)C)cc4n2C3)CC1 (stereo not shown) [drawing 39]
IC50 (HCV NS5B): 0.097 to 1 µM

COc1ccc2c(c1)C1CC1(C(=O)O)Cn1c-2c(C2CCCCC2)c2ccc(C(=O)OC(C)(C)C)cc21 (stereo not shown)
IC50 (HCV NS5B): 1 to 10 µM

COC(=O)c1ccc2c(C3CCCCC3)c3n(c2c1)CC1(C(=O)N2CC(C)OC(C)C2)CC1c1c(OC(F)(F)F)cccc1-3 (stereo not shown)
IC50 (HCV NS5B): 1 to 10 µM
